11 substances from US8178506B2, “Oligomeric compounds and compositions for use in modulation of small non-coding RNAs” (Regulus Therapeutics Inc., priority 2003, dated 2012) can be followed below.

In the oligonucleotide strings, read from the 5' end, every base follows the letter of its sugar. An asterisk marks phosphorothioate; unmarked linkages are phosphodiester. Other units and linkages are bracketed, terminal groups are in braces. A string of capitals states the bases alone. e = 2'-O-(2-methoxyethyl) (MOE); [5mC] = 5-methylcytosine; d = 2'-deoxy (DNA)

For this data set, the system named is IL-12 mRNA. Description: IL-12 mRNA in LPS-activated primary murine macrophages. The data set is classed as cell-based, mouse. To be noted: for IL-12 mRNA expression, % UTC: LPS, average of 3 treatments; for IL-12 mRNA expression, −IFN % UTC: 300 nM oligomeric compound and LPS, no IFN-gamma pretreatment, single experiment; for IL-12 mRNA expression, −IFN % UTC / IL-12 mRNA expression, +IFN % UTC: normalized to LPS-treated cells without oligomeric compound; for IL-12 mRNA expression, +IFN % UTC: 300 nM oligomeric compound, stimulation with IFN-gamma and LPS, average of 2 experiments.

For “129690 (antisense TTAGAATACGTCGCGTTATG; sugars from the 5' end e5 d10 e5, all phosphorothioate, methylation of C not given here) [compound 129690]”, the “IL-12 mRNA expression, −IFN % UTC” value is reported as 73 % UTC and the “IL-12 mRNA expression, +IFN % UTC” value came out at 129 % UTC. In addition, where the note is “75 nM, +IFN”, the “IL-12 mRNA expression, % UTC” value is 66 % UTC. The “IL-12 mRNA expression, % UTC” value (75 nM, −IFN) is recorded as 114 % UTC. Besides, the “IL-12 mRNA expression, % UTC” value (150 nM, +IFN) is listed as 54 % UTC. For the same substance, for the setting “150 nM, −IFN”, the “IL-12 mRNA expression, % UTC” value worked out at 109 % UTC. Also, for the setting “300 nM, +IFN”, the “IL-12 mRNA expression, % UTC” value was 66 % UTC. Moreover, the “IL-12 mRNA expression, % UTC” value (300 nM, −IFN) worked out at 101 % UTC. For the same substance, for the setting “600 nM, +IFN”, the “IL-12 mRNA expression, % UTC” value worked out at 81 % UTC. The “IL-12 mRNA expression, % UTC” value (600 nM, −IFN) came to 128 % UTC.
In the case of “327940 (antisense eG*eA*eA*e[5mC]*eA*eG*eG*eT*eA*eG*eT*e[5mC]*eT*eG*eA*eA*e[5mC]*eA*e[5mC]*eT*eG*eG*eG) [compound 327940]”, the “IL-12 mRNA expression, −IFN % UTC” value is reported as 228 % UTC and the “IL-12 mRNA expression, +IFN % UTC” value is 107 % UTC.
Take “327924 (antisense eG*e[5mC]*eA*eA*eG*e[5mC]*e[5mC]*e[5mC]*eA*eG*eA*e[5mC]*e[5mC]*eG*e[5mC]*eA*eA*eA*eA*eA*eG) [compound 327924]”: the “IL-12 mRNA expression, −IFN % UTC” value came to 171 % UTC and the “IL-12 mRNA expression, +IFN % UTC” value is 88 % UTC.
For “327936 (antisense eA*e[5mC]*eA*eG*e[5mC]*eT*eG*eG*eT*eT*eG*eA*eA*eG*eG*eG*eG*eA*e[5mC]*e[5mC]*eA*eA) [compound 327936]” the same measures were 221 % UTC and 55 % UTC.
For “327945 (antisense e[5mC]*eT*eG*eT*eT*e[5mC]*e[5mC]*eT*eG*e[5mC]*eT*eG*eA*eA*e[5mC]*eT*eG*eA*eG*e[5mC]*e[5mC]*eA) [compound 327945]” the same measures were 202 % UTC and 68 % UTC.
As for “327935 (antisense e[5mC]*eT*eA*e[5mC]*e[5mC]*eT*eG*e[5mC]*eA*e[5mC]*eT*eA*eT*eA*eA*eG*e[5mC]*eA*e[5mC]*eT*eT*eT*eA) [compound 327935]”, the “IL-12 mRNA expression, −IFN % UTC” value worked out at 254 % UTC and the “IL-12 mRNA expression, +IFN % UTC” value is 24 % UTC.
For “327961 (antisense eG*eG*eG*eG*eT*eA*eT*eT*eT*eG*eA*e[5mC]*eA*eA*eA*e[5mC]*eT*eG*eA*e[5mC]*eA) [compound 327961]” the same measures were 203 % UTC and 10 % UTC.
For “327971 (antisense eG*eG*eA*eA*eA*eT*e[5mC]*e[5mC]*e[5mC]*eT*eG*eG*e[5mC]*eA*eA*eT*eG*eT*eG*eA*eT) [compound 327971]” the same measures were 146 % UTC and 17 % UTC.
Consider “327958 (antisense e[5mC]*e[5mC]*eG*eG*e[5mC]*eT*eG*e[5mC]*eA*eA*e[5mC]*eA*e[5mC]*eA*eA*eG*eA*e[5mC]*eA*e[5mC]*eG*eA) [compound 327958]”, for which the “IL-12 mRNA expression, −IFN % UTC” value is given as 188 % UTC and the “IL-12 mRNA expression, +IFN % UTC” value is given as 60 % UTC.
Turning to “327959 (antisense e[5mC]*eA*eG*e[5mC]*e[5mC]*eG*e[5mC]*eT*eG*eT*e[5mC]*eA*e[5mC]*eA*e[5mC]*eG*e[5mC]*eA*e[5mC]*eA*eG) [compound 327959]”, the “IL-12 mRNA expression, −IFN % UTC” value is listed as 183 % UTC and the “IL-12 mRNA expression, +IFN % UTC” value came out at 20 % UTC.
The matching figures for “327963 (antisense eA*eA*e[5mC]*e[5mC]*eT*eA*eT*e[5mC]*e[5mC]*eT*eG*eA*eA*eT*eT*eA*e[5mC]*eT*eT*eG*eA*eA) [compound 327963]”: 224 % UTC and 23 % UTC.
